Publication PMC4516925, “Three Peptide Modulators of the Human Voltage-Gated Sodium Channel 1.7, an Important Analgesic Target, from the Venom of an Australian Tarantula” (Toxins, 2015)
“Also recorded” adds a separate entry of the source. Where a SMILES comes first, the peptide text is derived from it. Bridges are numbered along the chain shown (N, C = ends).

Experiments:
hNaV1.7 [1] = biological target: T1, hNaV1.7 (Homo sapiens, UniProt Q15858); assay: Inhibition of hNaV1.7 currents, two-electrode voltage clamp in Xenopus oocytes; assay type: cell-based; details: TEVC; for IC50 / Hill coefficient, inhibition of hNaV1.7: Xenopus oocytes, n = 5–7; for IC50: 50-ms step to 0 mV from −80 mV every 10 s, ND96 pH 7.4 with 0.1% BSA, 20 °C–22 °C, Hill equation, mean ± S.E.M.; for Selectivity, hNaV1.7 versus rNaV1.2 and hNaV1.5 (in words): comparison with rNaV1.2 and hNaV1.5, Xenopus oocytes; for Hill coefficient, inhibition of hNaV1.7: from concentration-effect curve
T1 construct: expressed in transfected cells; host or cells: Xenopus oocytes (cRNA injection)
Protocol: (§1) Plasmids containing cloned rNaV1.2, hNaV1.5 and hNaV1.7 were linearised, then capped cRNAs were synthesised using a T7 mMESSAGE-mMACHINE transcription kit (Ambion, Austin, TX, USA). Stage V-VI oocytes were obtained from anesthetised Xenopus frogs and prepared as previously described. Oocytes were injected with 20–40 ng of cRNA (Nanoject 2000; WPI, Sarasota, FL, USA) and incubated for 2–6 days at 17 °C in ND96 solution (96 mM NaCl, 2 mM KCl, 1 mM CaCl2, 2 mM MgCl2, 5 mM HEPES, pH 7.4), supplemented with 2.5 mM sodium pyruvate, 50 μg/mL gentamicin and 2.5% horse serum prior to electrophysiological recordings. All work with animals was carried out in strict accordance with the recommendations in the Australian code of practice for the care and use of animals for scientific purposes. The protocol was approved by the Anatomical Biosciences group of the Animal Ethics Committee at The University of Queensland (Approval Number QBI/059/13/ARC/NHMRC).
(§2) Two-electrode voltage clamp (TEVC) recordings were performed at room temperature (20 °C–22 °C) under voltage-clamp (Axoclamp 900A, Molecular Devices, Sunnyvale, CA, USA) using two standard glass microelectrodes of 0.5–1 MΩ resistance when filled with 3 M KCl solution. Stimulation, data acquisition, and analysis were performed using pCLAMP software (Version 10, Molecular Devices, Sunnyvale, CA, USA). Peptide stock solutions were made up to 30 μM, and serial dilutions were prepared in ND96 solution (pH 7.4) containing 0.1% bovine serum albumin (BSA). Venom peptides were applied directly to the recording chamber to prevent adsorption to plastics.
(§3) NaV channel recordings were performed on oocytes clamped at −80 mV. Data were sampled at 20 kHz and filtered at 2 kHz. Inward sodium currents were elicited by a 50-ms depolarising step to 0 mV every 10 s. Once the peak current had stabilised (typically ~3 min), serial dilutions of peptides were applied to oocytes to obtain concentration-effect curves. Data were analysed using Clampfit 10.2 and Prism 6.0 (GrahPad Software, La Jolla, CA, USA, 2013). The Hill equation was fit to the data to obtain the half-maximal inhibitory concentration (IC50) values and Hill coefficient (nH). Data are presented as mean ± S.E.M. (n = number of oocytes). I-V relationships in the absence and presence of 300 nM and 1 μM peptide were obtained on oocytes clamped at −80 mV; families of currents were evoked by applying 50-ms depolarising steps from −60 mV to +70 mV with 10-mV increments every 10 s. After acquiring the control I–V curve, the first concentration of peptide was added and the inhibitory effect was allowed to plateau (a test pulse from −80 to 0 mV every 10 s) before obtaining an I–V curve in the presence of peptide. This was repeated for the second concentration of peptide. Data were normalised to the maximal peak current and analysed using Clampfit 10.2 and Prism 6.0.

hNaV1.7 [2] = biological target: T1, hNaV1.7; assay: Current-voltage (I-V) relationship / V0.5 of activation of hNaV1.7; assay type: cell-based; details: 300 nM and 1 μM; n = 6
Protocol: as §1, with “QBI/059/13/ARC/NHMRC). […]” for “QBI/059/13/ARC/NHMRC).”
NaV channel recordings were performed on oocytes clamped at −80 mV. […] Data were analysed using Clampfit 10.2 and Prism 6.0 (GrahPad Software, La Jolla, CA, USA, 2013). […] Data were normalised to the maximal peak current and analysed using Clampfit 10.2 and Prism 6.0.

rNaV1.2 = biological target: T2, rNaV1.2 (Rattus norvegicus, UniProt P04775); assay: Inhibition of rNaV1.2 currents, two-electrode voltage clamp in Xenopus oocytes; assay type: cell-based; details: TEVC; for inhibition at 1 µM: 1 μM peptide, 50-ms step to 0 mV from −80 mV every 10 s
T2 construct: expressed in transfected cells; host or cells: Xenopus oocytes (cRNA injection)
Protocol: as §1, §2
as §3, with “After acquiring the control I–V curve, the first concentration of peptide was added and the inhibitory effect was allowed to plateau (a test pulse from −80 to 0 mV every 10 s) before obtaining an I–V curve in the presence of peptide. This was repeated for the second concentration of peptide.” left out

hNaV1.5 = biological target: T3, hNaV1.5 (Homo sapiens, UniProt Q14524); assay: Inhibition of hNaV1.5 currents, two-electrode voltage clamp in Xenopus oocytes; assay type: cell-based; details: TEVC
T3 construct: expressed in transfected cells; host or cells: Xenopus oocytes (cRNA injection)
Protocol: as §1, §2
NaV channel recordings were performed on oocytes clamped at −80 mV. Data were sampled at 20 kHz and filtered at 2 kHz. Inward sodium currents were elicited by a 50-ms depolarising step to 0 mV every 10 s. […] Data were analysed using Clampfit 10.2 and Prism 6.0 (GrahPad Software, La Jolla, CA, USA, 2013). […] Data were normalised to the maximal peak current and analysed using Clampfit 10.2 and Prism 6.0.

NaV1.2 [3] = details: cited from earlier work
[4] = test system: sodium channel domain II voltage sensor; details: gating modifier; cited from earlier work
NaV1.2 [5] = details: chimeric KV1.2/NaV1.2 channels; rat NaV1.2; cited from earlier work
NaV1.5 = details: cited from earlier work
NaV channels = details: cited from earlier work
Source text: Approximately 12% of spider toxins are C-terminally amidated. In addition to a possible role in peptide stability, C-terminal amidation can modulate biological activity. The 35-residue spider-venom peptide huwentoxin-IV (HwTx-IV) is a member of NaSpTx Family 1 isolated from venom of the tarantula Haplopelma schmidti (formerly known as Ornithoctonus huwena). Remarkably, native HwTx-IV with C-terminal amidation inhibits hNaV1.7 with is ~50-fold higher potency than a recombinant version with a C-terminal carboxylate group. […] Thus, we investigated the effects of Phlogius peptides on the current-voltage (I-V) relationship for hNaV1.7 using step-depolarisations ranging from −60 to +70 mV from a holding potential of −80 mV.

hNaV1.7 [6] = biological target: T1, hNaV1.7; details: cited from earlier work
human NaV1.8 = details: cited from earlier work
Source text: (§4) Approximately 12% of spider toxins are C-terminally amidated. In addition to a possible role in peptide stability, C-terminal amidation can modulate biological activity. The 35-residue spider-venom peptide huwentoxin-IV (HwTx-IV) is a member of NaSpTx Family 1 isolated from venom of the tarantula Haplopelma schmidti (formerly known as Ornithoctonus huwena). Remarkably, native HwTx-IV with C-terminal amidation inhibits hNaV1.7 with is ~50-fold higher potency than a recombinant version with a C-terminal carboxylate group. Although not in the same peptide family as HwTx-IV (NaSpTx F ...

human NaV1.5 = details: cited from earlier work
Source text: as §4

T1 sequence (Q15858 whole entry): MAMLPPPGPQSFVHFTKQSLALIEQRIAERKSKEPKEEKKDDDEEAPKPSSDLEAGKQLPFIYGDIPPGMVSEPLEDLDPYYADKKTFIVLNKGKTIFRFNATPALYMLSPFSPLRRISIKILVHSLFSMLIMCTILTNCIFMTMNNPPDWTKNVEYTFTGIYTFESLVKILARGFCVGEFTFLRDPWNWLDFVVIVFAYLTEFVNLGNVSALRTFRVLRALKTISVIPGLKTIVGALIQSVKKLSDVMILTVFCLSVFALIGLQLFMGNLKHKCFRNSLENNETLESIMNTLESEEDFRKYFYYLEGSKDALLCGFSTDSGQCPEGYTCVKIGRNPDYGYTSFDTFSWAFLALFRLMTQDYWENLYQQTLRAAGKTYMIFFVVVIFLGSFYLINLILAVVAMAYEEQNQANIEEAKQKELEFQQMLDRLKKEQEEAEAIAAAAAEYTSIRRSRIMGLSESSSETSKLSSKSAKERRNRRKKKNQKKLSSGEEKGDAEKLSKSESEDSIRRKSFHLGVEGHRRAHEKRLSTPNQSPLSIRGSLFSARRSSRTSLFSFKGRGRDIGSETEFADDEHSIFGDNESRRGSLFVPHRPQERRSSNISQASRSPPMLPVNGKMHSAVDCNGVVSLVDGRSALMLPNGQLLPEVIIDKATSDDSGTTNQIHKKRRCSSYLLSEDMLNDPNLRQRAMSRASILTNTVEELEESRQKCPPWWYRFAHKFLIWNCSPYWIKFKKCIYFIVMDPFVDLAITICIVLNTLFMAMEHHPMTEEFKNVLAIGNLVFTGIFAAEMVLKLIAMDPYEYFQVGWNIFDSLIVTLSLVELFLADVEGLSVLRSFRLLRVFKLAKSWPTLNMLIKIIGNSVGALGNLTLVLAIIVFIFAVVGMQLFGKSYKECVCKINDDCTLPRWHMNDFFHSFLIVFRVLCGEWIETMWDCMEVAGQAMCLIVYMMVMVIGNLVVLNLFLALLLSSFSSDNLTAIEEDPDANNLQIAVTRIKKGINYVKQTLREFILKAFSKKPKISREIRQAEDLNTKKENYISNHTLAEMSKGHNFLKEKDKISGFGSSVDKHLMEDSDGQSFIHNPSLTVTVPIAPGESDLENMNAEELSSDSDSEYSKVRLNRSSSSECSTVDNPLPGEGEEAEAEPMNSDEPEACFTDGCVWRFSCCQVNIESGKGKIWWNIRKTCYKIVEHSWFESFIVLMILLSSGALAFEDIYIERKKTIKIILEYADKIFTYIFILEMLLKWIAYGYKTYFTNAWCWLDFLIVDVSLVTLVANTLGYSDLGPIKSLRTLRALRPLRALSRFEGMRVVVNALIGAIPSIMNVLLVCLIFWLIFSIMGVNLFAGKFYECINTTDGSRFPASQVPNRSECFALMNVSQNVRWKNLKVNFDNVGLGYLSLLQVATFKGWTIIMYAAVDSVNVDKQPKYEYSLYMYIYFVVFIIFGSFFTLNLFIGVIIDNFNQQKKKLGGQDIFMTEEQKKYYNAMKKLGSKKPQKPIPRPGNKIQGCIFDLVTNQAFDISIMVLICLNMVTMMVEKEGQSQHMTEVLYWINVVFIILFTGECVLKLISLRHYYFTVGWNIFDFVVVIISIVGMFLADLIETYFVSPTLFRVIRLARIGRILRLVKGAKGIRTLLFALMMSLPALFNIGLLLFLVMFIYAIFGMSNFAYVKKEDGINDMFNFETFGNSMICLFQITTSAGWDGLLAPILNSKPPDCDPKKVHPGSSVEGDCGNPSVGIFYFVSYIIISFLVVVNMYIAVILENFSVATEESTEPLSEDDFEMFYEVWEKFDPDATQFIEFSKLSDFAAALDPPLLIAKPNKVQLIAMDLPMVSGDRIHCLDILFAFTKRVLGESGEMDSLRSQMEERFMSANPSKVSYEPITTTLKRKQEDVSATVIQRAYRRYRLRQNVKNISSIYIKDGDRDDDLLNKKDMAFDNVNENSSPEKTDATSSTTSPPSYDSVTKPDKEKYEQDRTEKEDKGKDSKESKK
T2 sequence (P04775 whole entry): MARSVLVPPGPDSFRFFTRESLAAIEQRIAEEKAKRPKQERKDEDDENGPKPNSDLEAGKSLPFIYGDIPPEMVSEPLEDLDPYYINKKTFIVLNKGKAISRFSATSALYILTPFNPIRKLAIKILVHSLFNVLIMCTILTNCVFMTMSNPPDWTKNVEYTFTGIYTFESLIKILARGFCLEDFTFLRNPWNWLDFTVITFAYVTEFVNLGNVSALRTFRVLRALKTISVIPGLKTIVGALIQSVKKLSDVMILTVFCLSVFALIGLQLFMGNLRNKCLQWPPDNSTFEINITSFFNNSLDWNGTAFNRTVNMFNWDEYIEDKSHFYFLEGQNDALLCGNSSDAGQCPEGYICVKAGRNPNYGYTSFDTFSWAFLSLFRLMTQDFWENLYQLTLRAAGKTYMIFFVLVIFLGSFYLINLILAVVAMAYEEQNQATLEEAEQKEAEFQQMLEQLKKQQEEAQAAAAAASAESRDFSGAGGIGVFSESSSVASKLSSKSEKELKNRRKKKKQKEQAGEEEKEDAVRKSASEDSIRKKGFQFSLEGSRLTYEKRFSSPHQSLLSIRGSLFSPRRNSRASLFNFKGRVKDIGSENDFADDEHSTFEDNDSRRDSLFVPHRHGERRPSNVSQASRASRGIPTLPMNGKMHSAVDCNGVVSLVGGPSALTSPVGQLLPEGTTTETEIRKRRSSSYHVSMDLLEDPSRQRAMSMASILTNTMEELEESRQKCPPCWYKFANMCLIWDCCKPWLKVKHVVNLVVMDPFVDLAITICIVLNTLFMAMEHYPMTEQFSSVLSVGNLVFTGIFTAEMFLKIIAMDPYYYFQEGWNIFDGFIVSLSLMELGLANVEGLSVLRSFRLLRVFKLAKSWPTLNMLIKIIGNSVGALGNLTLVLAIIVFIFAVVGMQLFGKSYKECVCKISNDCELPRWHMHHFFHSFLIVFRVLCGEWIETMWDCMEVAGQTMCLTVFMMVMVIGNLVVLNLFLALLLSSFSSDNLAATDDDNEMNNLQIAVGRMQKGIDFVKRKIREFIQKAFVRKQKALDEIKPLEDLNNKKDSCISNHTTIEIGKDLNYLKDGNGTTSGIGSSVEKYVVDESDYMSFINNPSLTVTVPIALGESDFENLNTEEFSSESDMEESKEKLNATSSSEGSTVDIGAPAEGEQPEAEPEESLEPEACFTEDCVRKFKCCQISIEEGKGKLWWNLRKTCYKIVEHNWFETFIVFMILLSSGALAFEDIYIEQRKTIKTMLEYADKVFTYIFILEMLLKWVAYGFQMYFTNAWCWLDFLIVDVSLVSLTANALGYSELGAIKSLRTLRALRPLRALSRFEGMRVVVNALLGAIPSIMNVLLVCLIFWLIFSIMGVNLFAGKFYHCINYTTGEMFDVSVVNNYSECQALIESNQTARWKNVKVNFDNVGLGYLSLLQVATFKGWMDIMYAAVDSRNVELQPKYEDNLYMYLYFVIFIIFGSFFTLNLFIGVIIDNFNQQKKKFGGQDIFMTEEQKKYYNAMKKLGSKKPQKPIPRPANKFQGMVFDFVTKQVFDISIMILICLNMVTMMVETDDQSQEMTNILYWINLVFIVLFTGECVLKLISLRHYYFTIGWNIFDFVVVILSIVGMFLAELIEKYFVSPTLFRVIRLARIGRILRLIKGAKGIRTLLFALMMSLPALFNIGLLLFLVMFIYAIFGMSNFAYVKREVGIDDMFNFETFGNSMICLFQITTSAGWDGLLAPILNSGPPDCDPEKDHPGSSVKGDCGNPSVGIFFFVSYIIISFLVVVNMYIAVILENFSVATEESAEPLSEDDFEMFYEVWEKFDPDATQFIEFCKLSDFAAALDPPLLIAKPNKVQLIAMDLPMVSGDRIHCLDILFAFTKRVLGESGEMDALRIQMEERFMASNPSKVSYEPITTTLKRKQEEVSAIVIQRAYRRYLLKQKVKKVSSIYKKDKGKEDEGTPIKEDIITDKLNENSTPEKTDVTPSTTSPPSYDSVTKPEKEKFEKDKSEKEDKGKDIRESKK

Molecule	IC50 (hNaV1.7 [1]) [nM]	Selectivity, hNaV1.7 versus rNaV1.2 and hNaV1.5 (in words) (hNaV1.7 [1])	Hill coefficient, inhibition of hNaV1.7 (hNaV1.7 [1])	Effect on I-V relationship of hNaV1.7 (in words) (hNaV1.7 [2])	inhibition at 1 µM (rNaV1.2) [%]	Effect on rNaV1.2 (in words) (rNaV1.2)	Effect on hNaV1.5 (in words) (hNaV1.5)	further results
CC(C)C[C@@H]1NC(=O)[C@H](CC(C)C)NC(=O)[C@H](CCC(=O)O)NC(=O)[C@H](CCCNC(=N)N)NC(=O)[C@@H](NC(=O)[C@H](C)N)CSSC[C@@H]2NC(=O)[C@@H]3CSSC[C@@H](C(=O)N[C@H](C(=O)N[C@@H](Cc4c[nH]c5ccccc45)C(=O)N[C@@H](CC(=O)O)C(=O)N[C@@H](Cc4c[nH]c5ccccc45)C(=O)N[C@H](C(=O)N[C@@H](Cc4ccccc4)C(N)=O)[C@@H](C)O)C(C)C)NC(=O)[C@H](Cc4c[nH]cn4)NC(=O)[C@H](Cc4ccc(O)cc4)NC(=O)[C@@H]4CCCN4C(=O)[C@H](Cc4c[nH]c5ccccc45)NC(=O)[C@H](CCCCN)NC(=O)[C@H](CCCCN)NC(=O)[C@H](CCCNC(=N)N)NC(=O)[C@H](CSSC[C@H](NC(=O)CNC(=O)CNC1=O)C(=O)N[C@@H](CO)C(=O)N[C@@H](CCCCN)C(=O)N[C@@H](CC(=O)O)C(=O)N[C@@H](CO)C(=O)N[C@@H](CC(=O)O)C(=O)N3)NC(=O)[C@H](CCC(=O)O)NC(=O)[C@H](CC(C)C)NC(=O)[C@H](Cc1c[nH]cn1)NC(=O)[C@H](C)NC2=O [Phlo1b] (H-ACRELLGGCSKDSDCCAHLECRKKWPYHCVWDWTF-NH2; disulfide 2-16, 9-21, 15-29 (inferred); N-terminus assumed)	360	inhibit hNaV1.7 more potently than rNaV1.2 and hNaV1.5	1.04	concentration-dependent, depolarising shifts in the I-V relationship for hNaV1.7	37	only minor inhibitory activity; also recorded: slightly more potent at rNaV1.2	only minor inhibitory activity; also recorded: a similar effect as Phlo1a at hNaV1.5	–
ProTx-II: most potent blocker of hNaV1.7 within NaSpTx family 3	–	–	–	–	–	–	–	IC50 (NaV1.2 [3]): 41 nM; Mechanism of sodium conductance reduction (in words) [4]: reduces sodium conductance by trapping the domain II voltage sensor in the closed state; Voltage sensors bound (in words) (NaV1.2 [5]): binds to the voltage sensors in domains I, II and IV of rat NaV1.2; also recorded: binding to the voltage sensors in domains I, II (receptor site 4), and IV (receptor site 3) of NaV1.2; IC50 (NaV1.5): 79 nM; Binding to NaV1.5 receptor site 4 (in words) (NaV1.5; mutagenesis study of NaV1.5): does not bind to receptor site 4 on the domain II voltage sensor; Effect on NaV1.5 gating (in words) (NaV1.5; voltage-dependence of activation): shifts the voltage-dependence of activation of NaV1.5 to more positive potentials; Activity (channel type), NaSpTx3 alignment (NaV channels; Figure 8C annotation, no reference given): Nav
ProTx-I	–	–	–	–	–	–	–	Blockade of human NaV1.7 (in words) (hNaV1.7 [6]): potent blocker; Blockade of human NaV1.8 (in words) (human NaV1.8): potent blocker; Blockade of human NaV1.5 (in words) (human NaV1.5): potent blocker; Effect on NaV channel activation (in words) (NaV channels): inhibit NaV channels by shifting the threshold for channel activation to more positive potentials
HwTx-IV	–	–	–	–	–	–	–	Fold higher potency at hNaV1.7, native amidated vs recombinant C-terminal carboxylate (hNaV1.7 [6]; native HwTx-IV (C-terminal amide) versus recombinant version with C-terminal carboxylate, no reference printed at the sentence (isolation: ref 24)): ~ 50 fold
CC[C@H](C)[C@H](NC(=O)[C@@H](NC(=O)[C@H](Cc1c[nH]c2ccccc12)NC(=O)[C@H](CC(=O)O)NC(=O)[C@H](Cc1c[nH]c2ccccc12)NC(=O)[C@@H](NC(=O)[C@@H]1CSSC[C@@H]2NC(=O)[C@H](CC(=O)O)NC(=O)[C@H](CO)NC(=O)[C@H](CC(=O)O)NC(=O)[C@H](CCCCN)NC(=O)[C@H](CO)NC(=O)[C@@H]3CSSC[C@H](NC(=O)[C@H](CCC(=O)O)NC(=O)[C@H](CC(C)C)NC(=O)[C@H](Cc4c[nH]cn4)NC(=O)[C@H](C)NC(=O)[C@H](CSSC[C@H](NC(=O)[C@H](C)N)C(=O)N[C@@H](CCCNC(=N)N)C(=O)N[C@@H](CCC(=O)O)C(=O)N[C@@H](CC(C)C)C(=O)N[C@@H](CC(C)C)C(=O)NCC(=O)NCC(=O)N3)NC2=O)C(=O)N[C@@H](CCCNC(=N)N)C(=O)N[C@@H](CCCCN)C(=O)N[C@@H](CCCCN)C(=O)N[C@@H](Cc2c[nH]c3ccccc23)C(=O)N2CCC[C@H]2C(=O)N[C@@H](Cc2ccc(O)cc2)C(=O)N[C@@H](Cc2c[nH]cn2)C(=O)N1)C(C)C)[C@@H](C)O)C(N)=O [Phlo1a] (H-ACRELLGGCSKDSDCCAHLECRKKWPYHCVWDWTI-NH2; disulfide 2-16, 9-21, 15-29 (inferred); N-terminus assumed)	459	inhibited rNaV1.2 and hNaV1.5 much less potently than hNaV1.7; also recorded: inhibit hNaV1.7 more potently than rNaV1.2 and hNaV1.5; also recorded: high level of selectivity for NaV1.7 over NaV1.2 and NaV1.5	0.87	concentration-dependent, depolarising shifts in the I-V relationship for hNaV1.7	< 20	only minor inhibitory activity	only minor inhibitory activity	inhibition at 1 µM (hNaV1.5; 1 μM peptide, 50-ms step to 0 mV from −80 mV every 10 s): < 20%
